Measured values from patent US20230322761A1, “DEGRADATION OF BRUTON'S TYROSINE KINASE (BTK) BY CONJUGATION OF BTK INHIBITORS WITH E3 LIGASE LIGAND AND METHODS OF USE” (BEIGENE, LTD., priority 2020, published 2023).

Molecular target: T1, BTK (Homo sapiens, UniProt Q06187)
T1 construct: endogenous in cells; host or cells: TMD-8 cells
Experiment: BTK degradation in TMD-8 cells, HTRF assay after 6 h treatment
Format: cell-based
Settings: for DC50: IC50 (DC50) of BTK degradation; for Dmax: TMD8, maximum percentage of inhibition (degradation)
Method in brief: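 Remaining BTK was quantified by HTRF in lysates of TMD-8 cells after 6 h exposure to an 8-point, 6-fold compound series (500× stocks in DMSO starting at 1 mM; 0.2% DMSO). Lysis 30 min, antibodies overnight at room temperature, ratio read at 665/620 nm; DC50 fitted with a four-parameter logistic equation.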

T1 sequence (Q06187 whole entry): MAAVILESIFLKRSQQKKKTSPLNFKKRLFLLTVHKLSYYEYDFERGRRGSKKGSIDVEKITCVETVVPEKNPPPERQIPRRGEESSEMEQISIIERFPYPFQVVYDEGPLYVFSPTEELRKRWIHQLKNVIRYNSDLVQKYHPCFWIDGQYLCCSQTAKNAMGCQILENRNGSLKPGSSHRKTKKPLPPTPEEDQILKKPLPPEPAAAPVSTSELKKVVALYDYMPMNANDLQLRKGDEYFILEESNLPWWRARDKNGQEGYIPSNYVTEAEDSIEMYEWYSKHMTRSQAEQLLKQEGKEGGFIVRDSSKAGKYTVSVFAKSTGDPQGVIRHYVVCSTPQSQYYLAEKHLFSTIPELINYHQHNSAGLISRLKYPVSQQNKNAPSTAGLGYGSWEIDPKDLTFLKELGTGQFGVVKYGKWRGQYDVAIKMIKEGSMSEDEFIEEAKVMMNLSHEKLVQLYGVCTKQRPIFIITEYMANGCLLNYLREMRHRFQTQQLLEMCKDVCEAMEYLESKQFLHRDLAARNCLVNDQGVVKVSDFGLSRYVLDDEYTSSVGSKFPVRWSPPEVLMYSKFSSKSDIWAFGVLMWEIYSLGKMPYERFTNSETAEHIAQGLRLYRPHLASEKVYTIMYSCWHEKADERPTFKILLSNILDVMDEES

| DC50 [nM] | Dmax [%] | Compound |
| --- | --- | --- |
| 4.13 |  | Cc1nc(CCN2CCN(c3ccc(-c4cnc5[nH]nc(-c6ccc([C@@H](C)NC(=O)c7noc(C(C)(C)C)n7)c(CO)c6)c5c4)cc3)CC2)ccc1C1CCC(=O)NC1=O (stereo partly drawn) [Example 167, 5-(tert-butyl)-N-((1R)-1-(4-(5-(4-(4-(2-(5-(2,6-dioxopiperidin-3-yl)-6-methylpyridin-2-yl)ethyl)piperazin-1-yl)phenyl)-1H-pyrazolo[3,4-b]pyridin-3-yl)-2-(hydroxymethyl)phenyl)ethyl)-1,2,4-oxadiazole-3-carboxamide] |
| 3.2 | 95.4 | Cc1cc(-c2n[nH]c3ncc(-c4ccc(C5CCN(CCc6ccc(OC7CCC(=O)NC7=O)cc6)CC5)cc4)cc23)ccc1CNC(=O)c1nc(C(C)(C)C)no1 (stereo not shown) [Example 29, 3-(tert-butyl)-N-(4-(5-(4-(1-(4-((2,6-dioxopiperidin-3-yl)oxy)phenethyl)piperidin-4-yl)phenyl)-1H-pyrazolo[3,4-b]pyridin-3-yl)-2-methylbenzyl)-1,2,4-oxadiazole-5-carboxamide] |
| 2.7 |  | Cc1cc(-c2n[nH]c3ncc(-c4ccc(N5CCC(CN6CCN(c7ccc(N8CCC(=O)NC8=O)cn7)CC6)CC5)cc4)cc23)ccc1[C@@H](C)NC(=O)c1noc(C(C)(C)C)n1 [Example 165, (R)-5-(tert-butyl)-N-(1-(4-(5-(4-(4-((4-(5-(2,4-dioxotetrahydropyrimidin-1(2H)-yl)pyridin-2-yl)piperazin-1-yl)methyl)piperidin-1-yl)phenyl)-1H-pyrazolo[3,4-b]pyridin-3-yl)-2-methylphenyl)ethyl)-1,2,4-oxadiazole-3-carboxamide] |
| 1.69 |  | Cc1cc(-c2n[nH]c3ncc(-c4ccc(N5CCN(CCc6ccc(N7CCC(=O)NC7=O)cn6)CC5)cc4)cc23)ccc1[C@@H](C)NC(=O)c1noc(C(C)(C)C)n1 [Example 194, (R)-5-(tert-butyl)-N-(1-(4-(5-(4-(4-(2-(5-(2,4-dioxotetrahydropyrimidin-1(2H)-yl)pyridin-2-yl)ethyl)piperazin-1-yl)phenyl)-1H-pyrazolo[3,4-b]pyridin-3-yl)-2-methylphenyl)ethyl)-1,2,4-oxadiazole-3-carboxamide] |
| 28.9 | 94.3 | Cc1cc(-c2n[nH]c3ncc(-c4ccc(C5CCN(CCc6ccc(C7CCC(=O)NC7=O)c7c6CCCC7)CC5)cc4)cc23)ccc1CNC(=O)c1nc(C(C)(C)C)no1 (stereo not shown) [Example 26, 3-(tert-butyl)-N-(4-(5-(4-(1-(2-(4-(2,6-dioxopiperidin-3-yl)-5,6,7,8-tetrahydronaphthalen-1-yl)ethyl)piperidin-4-yl)phenyl)-1H-pyrazolo[3,4-b]pyridin-3-yl)-2-methylbenzyl)-1,2,4-oxadiazole-5-carboxamide] |
| 5.8 |  | Cc1cc(-c2n[nH]c3ncc(-c4ccc(N5CCN(CC6CCN(c7ccc(N8CCC(=O)NC8=O)cc7)CC6)CC5)c(F)c4)cc23)ccc1[C@@H](C)NC(=O)c1noc(C(C)(C)C)n1 [Example 97, (R)-5-(tert-butyl)-N-(1-(4-(5-(4-(4-((1-(4-(2,4-dioxotetrahydropyrimidin-1(2H)-yl)phenyl)piperidin-4-yl)methyl)piperazin-1-yl)-3-fluorophenyl)-1H-pyrazolo[3,4-b]pyridin-3-yl)-2-methylphenyl)ethyl)-1,2,4-oxadiazole-3-carboxamide] |
| > 2000 |  | Cc1cc(-c2n[nH]c3ncc(-c4ccc(N5CCN(CCc6ccc7c(c6)C[C@]6(CC(=O)NC6=O)C7)CC5)cc4)cc23)ccc1[C@@H](C)NC(=O)c1nc(C(C)(C)C)no1 [Example 206, 3-(tert-butyl)-N—((R)-1-(4-(5-(4-(4-(2-((S)-2′,5′-dioxo-1,3-dihydrospiro[indene-2,3′-pyrrolidin]-5-yl)ethyl)piperazin-1-yl)phenyl)-1H-pyrazolo[3,4-b]pyridin-3-yl)-2-methylphenyl)ethyl)-1,2,4-oxadiazole-5-carboxamide] |
| 5.82 |  | COc1cc(-c2cnc3[nH]nc(-c4ccc([C@@H](C)NC(=O)c5noc(C(C)(C)C)n5)c(C)c4)c3c2)ccc1N1CCN(CC2CCN(c3ccc(N4CCC(=O)NC4=O)cc3)CC2)CC1 [Example 120, (R)-5-(tert-butyl)-N-(1-(4-(5-(4-(4-((1-(4-(2,4-dioxotetrahydropyrimidin-1(2H)-yl)phenyl)piperidin-4-yl)methyl)piperazin-1-yl)-3-methoxyphenyl)-1H-pyrazolo[3,4-b]pyridin-3-yl)-2-methylphenyl)ethyl)-1,2,4-oxadiazole-3-carboxamide] |
| 0.953 | 96.2 | Cc1cc(-c2n[nH]c3ncc(-c4ccc(C5CCN(CCCOc6ccc(NC7CCC(=O)NC7=O)cc6)CC5)cc4)cc23)ccc1CNC(=O)c1noc(C(C)(C)C)n1 (stereo not shown) [Example 2, 5-(tert-butyl)-N-(4-(5-(4-(1-(3-(4-((2,6-dioxopiperidin-3-yl)amino)phenoxy)propyl)piperidin-4-yl)phenyl)-1H-pyrazolo[3,4-b]pyridin-3-yl)-2-methylbenzyl)-1,2,4-oxadiazole-3-carboxamide] |
| 8.19 | 97.5 | COc1cc(OCCCN2CCC(c3ccc(-c4cnc5[nH]nc(-c6ccc(CNC(=O)c7nc(C(C)(C)C)no7)c(C)c6)c5c4)cc3)CC2)ccc1C1CCC(=O)NC1=O (stereo not shown) [Example 30, 3-(tert-butyl)-N-(4-(5-(4-(1-(3-(4-(2,6-dioxopiperidin-3-yl)-3-methoxyphenoxy)propyl)piperidin-4-yl)phenyl)-1H-pyrazolo[3,4-b]pyridin-3-yl)-2-methylbenzyl)-1,2,4-oxadiazole-5-carboxamide] |
| 1.22 |  | Cc1cc(CCN2CCC(c3ccc(-c4cnc5[nH]nc(-c6ccc([C@@H](C)NC(=O)c7noc(C(C)(C)C)n7)c(C)c6)c5c4)nc3)CC2)ncc1C1CCC(=O)NC1=O (stereo partly drawn) [Example 145, 5-(tert-butyl)-N-((1R)-1-(4-(5-(5-(1-(2-(5-(2,6-dioxopiperidin-3-yl)-4-methylpyridin-2-yl)ethyl)piperidin-4-yl)pyridin-2-yl)-1H-pyrazolo[3,4-b]pyridin-3-yl)-2-methylphenyl)ethyl)-1,2,4-oxadiazole-3-carboxamide] |
| 4.22 |  | Cc1cc(-c2n[nH]c3ncc(-c4ccc(C5CCN(CC6CCN(c7ccc(N8CCC(=O)NC8=O)cc7)CC6)CC5)nc4)cc23)ccc1CNC(=O)c1noc(C(C)(C)C)n1 [Example 63, 5-(tert-butyl)-N-(4-(5-(6-(1-((1-(4-(2,4-dioxotetrahydropyrimidin-1(2H)-yl)phenyl)piperidin-4-yl)methyl)piperidin-4-yl)pyridin-3-yl)-1H-pyrazolo[3,4-b]pyridin-3-yl)-2-methylbenzyl)-1,2,4-oxadiazole-3-carboxamide] |
| 4.81 |  | Cc1cc(-c2n[nH]c3ncc(-c4ccc(N5CCN(C6CCN(c7ccc(NC8CCC(=O)NC8=O)cc7)CC6)CC5)cc4)cc23)ccc1[C@@H](C)NC(=O)c1noc(C(C)(C)C)n1 (stereo partly drawn) [Example 180, 5-(tert-butyl)-N-((1R)-1-(4-(5-(4-(4-(1-(4-((2,6-dioxopiperidin-3-yl)amino)phenyl)piperidin-4-yl)piperazin-1-yl)phenyl)-1H-pyrazolo[3,4-b]pyridin-3-yl)-2-methylphenyl)ethyl)-1,2,4-oxadiazole-3-carboxamide] |
| 1.05 |  | Cc1cc(-c2n[nH]c3ncc(-c4ccc(N5CCN(CCc6ccc(C7CCC(=O)NC7=O)cc6)CC5)cn4)cc23)ccc1[C@@H](C)NC(=O)c1noc(C(C)(C)C)n1 (stereo partly drawn) [Example 116, 5-(tert-butyl)-N-((1R)-1-(4-(5-(5-(4-(4-(2,6-dioxopiperidin-3-yl)phenethyl)piperazin-1-yl)pyridin-2-yl)-1H-pyrazolo[3,4-b]pyridin-3-yl)-2-methylphenyl)ethyl)-1,2,4-oxadiazole-3-carboxamide] |
| 9.1 | 97.6 | Cc1cc(-c2n[nH]c3ncc(-c4ccc(N5CCN(CC6CCN(c7ccc(N8CCC(=O)NC8=O)cc7)CC6)CC5)cc4)cc23)ccc1CNC(=O)c1noc(C(C)(C)C)n1 [Example 22, 5-(tert-butyl)-N-(4-(5-(4-(4-((1-(4-(2,4-dioxotetrahydropyrimidin-1(2H)-yl)phenyl)piperidin-4-yl)methyl)piperazin-1-yl)phenyl)-1H-pyrazolo[3,4-b]pyridin-3-yl)-2-methylbenzyl)-1,2,4-oxadiazole-3-carboxamide] |
| 4.13 |  | Cc1cc(-c2n[nH]c3ncc(-c4ccc(N5CCN(CCc6ccc(C7CCC(=O)NC7=O)cc6)CC5)cc4)cc23)ccc1CNC(=O)c1cn(C(C)(C)C)nn1 (stereo not shown) [Example 108, 1-(tert-butyl)-N-(4-(5-(4-(4-(4-(2,6-dioxopiperidin-3-yl)phenethyl)piperazin-1-yl)phenyl)-1H-pyrazolo[3,4-b]pyridin-3-yl)-2-methylbenzyl)-1H-1,2,3-triazole-4-carboxamide] |
| 3.93 |  | Cc1cc(-c2n[nH]c3ncc(-c4ccc(C5CCN(CCc6ccc(C7CCC(=O)NC7=O)cc6)CC5)cc4)cc23)ccc1[C@@H](C)NC(=O)c1noc(C(C)(C)C)n1 (stereo partly drawn) [Example 227, 5-(tert-butyl)-N-((1R)-1-(4-(5-(4-(1-(4-(2,6-dioxopiperidin-3-yl)phenethyl)piperidin-4-yl)phenyl)-1H-pyrazolo[3,4-b]pyridin-3-yl)-2-methylphenyl)ethyl)-1,2,4-oxadiazole-3-carboxamide] |
| 1.4 | 101 | Cc1cc(-c2n[nH]c3ncc(-c4ccc(CCN5CCC(c6ccc(C7CCC(=O)NC7=O)cc6)CC5)cc4)cc23)ccc1CNC(=O)c1noc(C(C)(C)C)n1 (stereo not shown) [Example 8, 3-(tert-butyl)-N-(4-(5-(4-(2-(4-(4-(2,6-dioxopiperidin-3-yl)phenyl)piperidin-1-yl)ethyl)phenyl)-1H-pyrazolol[3,4-b]pyridin-3-yl)-2-methylbenzyl)-1,2,4-oxadiazole-5-carboxamide] |
| 1.47 |  | Cc1cc(-c2n[nH]c3ncc(-c4ccc(N5CCN(CC6CCN(c7ccc(N8CCC(=O)NC8=O)cc7)CC6)CC5)nc4)cc23)ccc1CNC(=O)c1nc(C(C)(C)C)no1 [Example 68, 3-(tert-butyl)-N-(4-(5-(6-(4-((1-(4-(2,4-dioxotetrahydropyrimidin-1(2H)-yl)phenyl)piperidin-4-yl)methyl)piperazin-1-yl)pyridin-3-yl)-1H-pyrazolo[3,4-b]pyridin-3-yl)-2-methylbenzyl)-1,2,4-oxadiazole-5-carboxamide] |
